Reference: patent US20050026911A1, “Benzotriazapinone salts and methods for using same” (priority 2003, published 2005)

Target: T1, gastrin (CCK2) receptors (Rattus norvegicus, UniProt P30553)
T1 construct: The stomach was excised and flushed with ca. 1 ml of unbuffered physiological saline solution; from tissue; host or cells: isolated whole stomach of immature rats (ca. 21 days old)
T1 sequence (P30553 1-452): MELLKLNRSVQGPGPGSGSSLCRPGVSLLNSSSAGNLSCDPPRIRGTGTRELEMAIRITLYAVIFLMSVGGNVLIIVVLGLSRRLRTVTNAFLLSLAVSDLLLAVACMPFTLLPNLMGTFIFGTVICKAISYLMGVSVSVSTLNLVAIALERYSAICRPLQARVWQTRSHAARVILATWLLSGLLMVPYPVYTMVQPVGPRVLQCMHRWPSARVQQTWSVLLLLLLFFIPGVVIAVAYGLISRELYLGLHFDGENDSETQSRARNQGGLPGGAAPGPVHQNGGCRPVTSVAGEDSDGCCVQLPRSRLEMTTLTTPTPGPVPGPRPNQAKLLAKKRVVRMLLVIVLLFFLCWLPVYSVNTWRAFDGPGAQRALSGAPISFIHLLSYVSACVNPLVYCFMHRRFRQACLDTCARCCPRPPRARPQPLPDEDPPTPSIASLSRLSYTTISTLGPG
Test: gastrin (CCK2) antagonist activity in an immature rat stomach assay
Settings: pentagastrin dose-response curves, acid secretion, read-out: pKB rat stomach (converted)
Protocol: The compounds of the examples were tested for gastrin (CCK2) antagonist activity in an immature rat stomach assay. The procedure was as follows:
The oesophagus of immature rats (33-50 g, ca. 21 days old) was ligated at the level of the cardiac sphincter and the duodenal sphincter was cannulated. The stomach was excised and flushed with ca. 1 ml of unbuffered physiological saline solution. The fundus was punctured and cannulated. A further 4-5 ml of unbuffered solution was flushed through the stomach to ensure the preparation was not leaking. […] The stomach was continuously perfused at a rate of 1 ml min^−1 with unbuffered solution gassed with 100% O2 with the perfusate passing over an internally referenced pH-electrode fixed 12 cm above the stomach.
After 120 min of stabilisation the drugs were added directly to the serosal solution in the organ bath and after a further 60 min cumulative pentagastrin dose-response curves were started.

SMILES | Kb [nM]
CC1(C(=O)CN2C(=O)N(CC(=O)Nc3cccc(-c4nc(=O)o[nH]4)c3)N=C(C3CCCCC3)c3ccccc32)CCCC1 [Example 87] | 3.16
O=C(O)Cc1cccc(NC(=O)CN2N=C(C3CCCCC3)c3ccccc3N(CC(=O)C3CC3)C2=O)c1 [Example 119] | 24.5
O=C(CN1N=C(C2CCCCC2)c2ccccc2N(CC(=O)C2CCCC2)C1=O)Nc1cccc(-c2ccc(C(=O)O)o2)c1 [Example 149] | 1.1
CN(C)c1cccc(NC(=O)CN2N=C(C3CCCCC3)c3ccccc3N(CC(=O)C(C)(C)C)C2=O)c1 [Example 33, 2-[5-Cyclohexyl-J-(3,3-dimethyl-2-oxo-butyl)-2-oxo-1,2-dihydro-3H-1,3,4-benzotriazepin-3-yl]-N-(3-dimethylamino-phenyl)-acetamide] | 91.2
Cc1ccc2c(c1)N(CC(=O)C(C)(C)C)C(=O)N(CC(=O)Nc1cccc(C(=O)O)c1)N=C2C1CCCCC1 [Example 112, 3-{2-[5-Cyclohexyl-1-(3,3-dimethyl-2-oxo-butyl)-8-methyl-2-oxo-1,2-dihydro-3H-1,3,4-benzotriazepin-3-yl]-acetylamino}-benzoic acid] | 40.7
CC(=O)N/C(=C\c1cccc(NC(=O)CN2N=C(C3CCCCC3)c3ccccc3N(CC(=O)C(C)(C)C)C2=O)c1)C(=O)O [Example 155, 2-Acetylamino-3-(3-{2-[5-cyclohexyl-1-(3,3-dimethyl-2-oxo-butyl)-2-oxo-1,2-dihydro-3H-1,3,4-benzotriazepin-3-yl]-acetylamino}-phenyl)-acrylic acid] | 70.8
CNc1ccccc1NC(=O)CN1N=C(C2CCCCC2)c2ccccc2N(CC(=O)C(C)(C)C)C1=O [Example 101, 2-[5-Cyclohexyl-1-(3,3-dimethyl-2-oxo-butyl)-2-oxo-1,2-dihydro-3H-1,3,4-benzotriazepin-3-yl]-N-(2-methylamino-phenyl)-acetamide] | 129
CC1(C(=O)CN2C(=O)N(CC(=O)Nc3cccc(SCC(=O)O)c3)N=C(C3CCCCC3)c3ccccc32)CCCCC1 [Example 134, [3-(2-{5-Cyclohexyl-1-[2-(1-methyl-cyclohexyl)-2-oxo-ethyl]-2-oxo-1,2-dihydro-3H-1,3,4-benzotriazepin-3-yl}-acetylamino)-phenylsulfanyl]-acetic acid] | 17.4
CNc1cccc(NC(=O)CN2N=C(C3CCCCC3)c3ccccc3N(CC(=O)C3CCCC3)C2=O)c1 [Example 57, 2-[5-Cyclohexyl-1-(2-cyclopentyl-2-oxo-ethyl)-2-oxo-1,2-dihydro-3H-1,3,4-benzotriazepin-3-yl]-N-(3-methylaminophenyl)-acetamide] | 1.17
CC(C)(C)C(=O)CN1C(=O)N(CC(=O)Nc2ccc3cnn(CC(=O)O)c3c2)N=C(C2CCCCC2)c2ccccc21 [Example 99, (6-{2-[5-Cyclohexyl-1-(3,3-dimethyl-2-oxo-butyl)-2-oxo-1,2-dihydro-3H-1,3,4-benzotriazepin-3-yl]-acetylamino}-indazol-1-yl)-acetic acid] | 14.1
CC(C)(C)C(=O)CN1C(=O)N(CC(=O)Nc2cccc(C(=O)O)c2)N=C(C2CCCC2)c2ccccc21 [Example 9, 3-{2-[5-Cyclopentyl-1-(3,3-dimethyl-2-oxo-butyl)-2-oxo-1,2-dihydro-3H-1,3,4-benzotriazepin-3-yl]-acetylamino}-benzoic acid] | 75.9
CC(C)(C)C(=O)CN1C(=O)N(CC(=O)Nc2cccc(/C=C3\SC(=O)NC3=O)c2)N=C(C2CCCCC2)c2ccccc21 [Example 147, 2-[5-Cyclohexyl-1-(3,3-dimethyl-2-oxo-butyl)-2-oxo-1,2-dihydro-3H-1,3,4-benzotriazepin-3-yl]-N-[3-(2,4-dioxo-thiazolidin-5-ylidenemethyl)-phenyl]-acetamide] | 8.32
CC(C)(C)C(=O)CN1C(=O)N(CC(=O)Nc2cccc(NC(=O)CCC(=O)O)c2)N=C(C2CCCCC2)c2ccccc21 [Example 66, N-(3-{2-[5-Cyclohexyl-1-(3,3-dimethyl-2-oxo-butyl)-2-oxo-1,2-dihydro-3H-1,3,4-benzotriazepin-3-yl]-acetylamino}-phenyl)-succinamic acid] | 74.1
